Data set [1] deals with T1, phthalyl amidase (Xanthobacter agilis, UniProt P0C2Y0). The data set is described as follows: Substrate specificity of phthalyl amidase (Tables 9-11). It counts as biochemical. To be noted: 30° C., pH 8.0. Here is the method: the activity of phthalyl amidase against 25 compounds was determined. The compounds were divided into beta-lactams (Table 9), phthalyl amides (Table 10), and aromatic ring substituted amides (Table 11). Each reaction mixture (1 ml total volume) contained 2.5 μmol of compound and 0.3 units of enzyme (based on the chromogenic substrate) of the preparative scale purified enzyme, in 50 mM phosphate buffer, pH 8.0. The reactions were conducted at 30° C. Samples of the reaction mixture were taken at various times, and methanol (equal value) was added to stop the reaction. The samples were examined by HPLC to determine the extent of substrate hydrolysis. The amount of compound hydrolyzed was calculated from a standard curve of the test compound. All substrates were stable in buffer at 30° C. and pH 8.0 in the absence of enzyme for 24 hours.

Data set [2] deals with T1, phthalyl amidase. The data set is described as follows: Kinetic parameters for phthalyl amidase. It counts as biochemical. As to conditions: Table 12; 32° C., pH 8.2. Here is the method:
The kinetic parameters of the enzyme were determined for several representative substrates. Compounds II, XVII, and XVIII were tested using 0.9 μg/ml of enzyme. Compounds III and XI were tested using 5.14 μg/ml of enzyme. Substrate concentrations were between 0 and 25 mM and reaction time was between 2 and 20 minutes, depending on the substrate used. All reactions were run at 32° C. and at pH 8.2. Km is the Michaelis constant for enzyme kinetics, Vmax is the maximal rate of reaction calculated by the Michaelis-Menten equation, and Kcat is the catalytic constant for an enzyme reaction.

For data set [3], the target named is T1, phthalyl amidase. The data set is described as follows: Influence of effectors and organic solvents on phthalyl amidase activity. It counts as biochemical. Here is the method: A typical reaction mixture consisted of 1 ml total volume and contained 0.1 mM III, 0.1 μM phthalyl amidase in 50 mM potassium phosphate buffer (pH 5.5-9.0) at 32° C. for 20 minutes. The reactions were stopped by the addition of 1 ml methanol. After removal of precipitate by centrifugation, an aliquot of the supernatant fraction (typically 30 μl) was monitored for the beta-lactam nucleus and phthalic acid by HPLC using a Zorbax C8 column (0.46×15 cm; MacMod Analytical Inc., Chadds Ford, Pa.). The two reaction products were eluted by a mobile phase constructed as continuous mixed gradients from (a) 1% ACN (acetonitrile)/0.2% TFA (trifluoroacetic acid) and (b) 80% ACN/0.2% TFA as follows: 1) 0% (b), 3min; 2) 0-50% (b), 0.5 min; 3) 50-100% (b), 3 min; 4) 100% (b), 2.5 min; 5) 100-1% (b), 0.1 min; and 6) 0% (b), 5 min.
The effect of various agents on the enzymatic activity of phthalyl amidase was determined using standard conditions (see Example 5). All agents were tested at 1 mM final concentration unless otherwise indicated.

Data set [4] is described as follows: Stability of phthalyl amidase: effect of ionic strength and pH. Format: physicochemical. As to conditions: 200 mM salt added to 20 mM buffer. The protocol: The stability of phthalyl amidase at pH values ranging from 6-9 was determined as described in Example 5 at 30° C. in both 20 and 200 mM potassium phosphate buffer. […] In 200 mM buffer, the enzyme retained at least 80% of its activity for 100 hours irrespective of the pH of the incubating medium.

The target in data set [5] is T1, phthalyl amidase. The data set is described as follows: Chiral and additional substrate selectivity of phthalyl amidase (Table 13). As to conditions: 30° C.; for Relative Activity: Table 13. It counts as biochemical. The protocol: Several additional substrates were tested in a total volume of 1 ml. […] Reactions were stopped by the addition of methanol, and phthalic acid formation was monitored by HPLC.

Data set [6] addresses T1, phthalyl amidase. The data set is described as follows: Preparative scale enzymatic hydrolysis to carbacephem nucleus. Format: biochemical. As to conditions: 510 minutes, 30° C., pH 8.0, 80 units enzyme. The protocol:
Thus, either compound XXXIII or III can be used to prepare the carbacephem nucleus (XXXIV). Substrate (5 grams) was added to 20 ml of deionized water and the pH of the solution was adjusted to 8.0 with concentrated ammonium hydroxide. Phthalyl amidase, 80 units as determined using the chromogenic substrate (II), was added to start the reaction. Temperature was maintained at 30° C. and the pH maintained at 8.0 by adding 2 N ammonium hydroxide. […] The pH of the reaction was lowered to 5.0 thereby precipitating the carbacephem nucleus. Isolated yields of the nucleus were between 65% and 77%. [drawing 26]

Where [7] appears, read: Table 11, aromatic ring substituted amides.

Like-named read-outs stand apart in the source and are kept apart here.

One may read the Km as the concentration of substrate that gives half-maximal velocity.

T1 sequence (P0C2Y0 2-453): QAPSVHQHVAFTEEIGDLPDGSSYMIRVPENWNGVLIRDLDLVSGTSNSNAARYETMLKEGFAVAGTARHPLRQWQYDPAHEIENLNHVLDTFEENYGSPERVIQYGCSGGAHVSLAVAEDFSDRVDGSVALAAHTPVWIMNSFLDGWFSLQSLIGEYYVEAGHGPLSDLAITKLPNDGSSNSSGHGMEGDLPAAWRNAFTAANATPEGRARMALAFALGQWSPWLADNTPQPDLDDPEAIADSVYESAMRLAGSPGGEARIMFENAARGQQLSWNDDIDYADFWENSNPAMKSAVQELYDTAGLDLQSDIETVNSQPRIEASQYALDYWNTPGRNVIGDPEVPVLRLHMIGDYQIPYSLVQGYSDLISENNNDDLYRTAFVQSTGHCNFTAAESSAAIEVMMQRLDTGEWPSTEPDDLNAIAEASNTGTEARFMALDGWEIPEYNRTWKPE

As for `O=C(O)CNC(=O)c1ccccc1C(=O)O` [XI], at phthalyl amidase [1] (Table 10, phthalyl amides), the “Relative Activity” value stood at 31.8. On phthalyl amidase [2], the Km worked out at 140 µM and the Vmax worked out at 0.27 μmol/sec/μmol.
As for `[Cl-].[Na+]` [NaCl, reference compound], the “% of Control Activity” value on phthalyl amidase [3] came to 104%. Further, in data set [4], the “protection of enzyme against activity loss” value is on record as “protected against activity loss”.
For the compound `O=C(O)c1ccccc1C(=O)Nc1ccc([N+](=O)[O-])c(C(=O)O)c1` [II, 4-(2'-carboxy-N-benzoyl)amino-2-carboxy-nitrobenzene], the “Relative Activity” value on phthalyl amidase [1] (Table 10, phthalyl amides) is listed as 295.7. In addition, on phthalyl amidase [2], the Km turned out to be 50 µM and the Vmax stood at 5.95 μmol/sec/μmol.
Turning to `O=C(O)c1ccccc1C(=O)N[C@H](C(=O)O)c1ccccc1` [Compound XXX, N-phthalyl-phenylglycine], the results for the “substrate preference” value at phthalyl amidase [5] and on phthalyl amidase [5] (listed as L isomer) were “poor substrates for the enzyme” and “extremely poor substrate”, respectively. Further, the “Relative Activity” value on phthalyl amidase [5] (run for a longer time period) stood at 1.3.
With `[Cl-].[K+]` [KCl, reference compound], the “% of Control Activity” value at phthalyl amidase [3] (1 mM agent) was 100%. Besides, the “protection of enzyme against activity loss” value in data set [4] is “protected against activity loss”.
For the compound `O=C(O)C1=C(Cl)CCC2C(NC(=O)c3ccccc3C(=O)O)C(=O)N12` (centres unmarked) [III, 7-phthalamido-3-chloro-4-carboxy-1-carba-dethioceph-3-em], the “Relative Activity” value at phthalyl amidase [5] (2 minutes) turned out to be 100; on phthalyl amidase [1] (Table 9, beta-lactams), 100. The same compound showed a hydrolyzed at phthalyl amidase [6] of 90.0%. In addition, at phthalyl amidase [2], the Km is 900 µM. Further, the Vmax at phthalyl amidase [2] was determined as 7.6 μmol/sec/μmol.
In turn, `O=C(O)C1=C(Cl)CCC2C(N3C(=O)c4ccccc4C3=O)C(=O)N12` (centres unmarked) [XXXIII, Phthalimido carbacephem] returned a hydrolyzed on phthalyl amidase [6] of 98%.
In the case of `O=C(O)c1ccccc1C(=O)Nc1ccccc1` [Compound XXXI], the “substrate preference” value on phthalyl amidase [5] was “twice that of compound III”. On phthalyl amidase [5] (2 minutes), the “Relative Activity” value is 200.
For the compound `CCCCCCC(C(=O)O)n1cnc(NC(=O)c2c(F)cccc2C(=O)O)c1` (centres unmarked) [XVIII], the “Relative Activity” value on phthalyl amidase [1] (setting [7]) is on record as 159.00. Moreover, at phthalyl amidase [2], the Km came to 170 µM and the Vmax was found to be 1.94 μmol/sec/μmol.
In the case of `O=C(Nc1ccccc1)c1ccccc1S(=O)(=O)O` [XXXII], the “substrate preference” value at phthalyl amidase [5] is recorded as “poor substrates for the enzyme”. Moreover, the “Relative Activity” value on phthalyl amidase [5] (run for a longer time period) was 0.0.
In the case of `CCCCCCC(C(=O)O)n1cnc(NC(=O)c2ccccc2C(=O)O)c1` (centres unmarked) [XVII], the “Relative Activity” value at phthalyl amidase [1] (setting [7]) came out at 100.0. Further, at phthalyl amidase [2], the Km came to 90 µM and the Vmax worked out at 1.41 μmol/sec/μmol.

(Values after patent US5607850A, “Enzyme from microbial source: phthalyl amidase” (Eli Lilly and Company, priority 1995, dated 1997).)
